In brackets after ≈: the same amount, converted by molar mass.
Assays:
[1] = system: Huh7 cells; experiment: Neutral red uptake assay (cytotoxicity); type: cell-based, human
Excerpt: The neutral red uptake assay is a cytotoxicity test that is based on the ability of viable cells to incorporate and bind the supra-vital dye neutral red in the lysosomes. This weakly cationic dye penetrates cell membranes by non-ionic passive diffusion and concentrates in the lysosomes, where it binds by electrostatic hydrophobic bonds to anionic and phosphate groups of the lysosomal matrix. The dye is then extracted from the viable cells using an acidified ethanol solution, and the absorbance of the solubilized dye is read. When the cell dies or the pH gradient is reduced, the dye is not retained and consequently, the amount of retained dye is proportional to the number of viable cells. Most primary cells and cell lines can be used for this method. The HepG2 and Huh7, two human hepatoma cell lines, were used for this study. The cells were seeded in 96-well tissue culture plates and treated for 48 hours with the compounds. The plates were then incubated for 2 hours with a medium containing neutral red. The cells were subsequently washed, the dye was extracted in each well, and the absorbance was read using a spectrophotometer (FIG. 3 and Table 11).

[2] = system: Huh7 or HepG2 cell line; experiment: MTT assay (cytotoxicity); type: cell-based, human; conditions: 24 hours and 48 hours
Protocol: The MTT assay is a colorimetric assay that measures the reduction of yellow 3-(4,5-dimethylhiazol-2-yl)-2,5-diphenyl tetrazolium bromide (MTT) by mitochondrial succinate dehydrogenase. The MTT enters the cells and passes into the mitochondria where it is reduced to an insoluble, dark purple, formazan product. The cells are then solubilized with an organic solvent (e.g., isopropanol) and the released, solubilized formazan reagent is measured spectrophotometrically. Since reduction of MTT can only occur in metabolically active cells, the level of activity is a measure of the viability of the cells.
Cells of the Huh7 or HepG2 cell line were seeded in a 96 well plate. The plate was incubated overnight at 37° C. in a humidified incubator, 5% CO2. The test compounds were added to the plate. Different concentrations of drug were tested in triplicate along with a negative control. The final volume was adjusted to 100 μl per well. The plate was incubated overnight at 37° C. in a humidified incubator, 5% CO2. After 24 hours and 48 hours, MTT reagent (5 mg/ml, 10 μl/100 μl per well of the 96 well plate) was added and incubated at 37° C. for 3 hours. After 3 hours, 100 μl of the DMSO solution was added to each well and the plate was rocked at room temperature for 1 hour. The plate was then read on a plate reader at […].

[3] = system: Candida apicola; experiment: Anti-fungal/anti-yeast activity: MIC50 (broth microdilution) and MFC; type: cell-based; conditions: for Activity (fungicidal/fungistatic) / MIC-50 / Ratio MFC/MIC: Candida apicola; for MFC: Starmerella apicola
Protocol: (§1) Fluconazole, an ergosterol inhibitor, and the beta-1,3-glucan inhibitor micafungin served as controls (See Tables 1-8).
(§2) The minimum inhibitory concentrations resulting in 50% growth inhibition (MIC50) of […] Candida species (C. albicans, C. tropicalis and C. glabrata, C. lusitaniae, C. parapsilosis, and C. apicola) as well as Aspergillus fumigatus to a set of novel synthetic compounds was determined in accordance with the guidelines in CLSI document M27-A2 (Clinical and Laboratory Standards Institute; Wayne, Pa.). The total volume of cells and drug was 100 μL per microtiter well, and each drug was diluted in RPMI to achieve final concentrations of 0.2-100 μg/ml. Uninoculated cultures were used as a reference standard. Stock inoculum suspensions were prepared from 24 hour cultures on YPD (yeast extract/peptone/dextrose) media at 30° C. For MIC determinations, an inoculum of 1.0×10^3 cells of Candidia and 2.0×10^3 cells of Aspergillus per well were used, and cells in diluted drugs were prepared in RPMI-1640 medium. MICs were determined both visually and spectrophotometrically at 24 hours and 48 h at 550 nm using a micro plate reader. The MIC50 endpoint was measured as the lowest drug concentration resulting in a reduction of growth of 50% or more compared with growth of the control.
(§3) The minimum fungicidal concentrations (MFCs) were determined for each drug-isolate-medium combination as follows. After 48 hours of incubation, 100 μL of each drug-isolate-medium combination (2 plates) was subcultured onto YPD plates (100 μL of solution was spread over the YPD plate). […] The plates were then incubated at 30° C. for 48 hours.
(§4) The in vitro fungicidal activities (MFCs) were determined for each drug-isolate-medium combination as follows. After 48 hours of incubation, 10 μL each drug-isolate-medium combination was spotted onto YPD plates (10 μL of each well is spotted sequentially with positive and negative control wells). […] The plates were then incubated at 30° C. for 48 hours.

[4] = system: Candida glabrata; experiment: as above; type: cell-based; conditions: for Activity (fungicidal/fungistatic) / Ratio MFC/MIC: Candida glabrata; for MFC / MIC: Nakaseomyces glabratus; for MIC: read-out: MIC-50
Protocol: as §1, §2, §3, §4

[5] = system: Candida albicans (CAF-2); experiment: as above; type: cell-based; conditions: for MIC: read-out: MIC-50
Protocol: as §1, §2, §3, §4

[6] = system: Candidia parapsilosis; experiment: as above; type: cell-based; conditions: for Activity (fungicidal/fungistatic) / Ratio MFC/MIC: Candidia parapsilosis; for MIC: read-out: MIC-50
Protocol: as §1, §2, §3, §4

[7] = system: Candida lusitaniae; experiment: as above; type: cell-based; conditions: for Activity (fungicidal/fungistatic) / Ratio MFC/MIC: Candida lusitaniae; for MFC / MIC: Clavispora lusitaniae; for MIC: read-out: MIC-50
Protocol: as §1, §2, §3, §4

[8] = system: Candida tropicalis; experiment: as above; type: cell-based; conditions: for MIC: read-out: MIC-50
Protocol: as §1, §2, §3, §4

[9] = system: Saccharomyces cerevisiae (YPH501); experiment: as above; type: cell-based; conditions: for MFC / MIC: Saccharomyces cerevisiae; for Activity (fungicidal/fungistatic) / Ratio MFC/MIC: Saccharomyces cerevisiae (YPH501); for MIC: read-out: MIC-50

Compound | Percentage Viability ([1]; 3.3 μg/mL (approx 1X MIC)) [%] | Percentage Viability ([1]; 10 μg/mL (approx 3X MIC)) [%] | Percentage Viability ([1]; 33 μg/mL (approx 10X MIC)) [%] | Percentage Viability ([1]; 100 μg/mL (approx 30X MIC)) [%] | Toxicity to mammalian cell lines (MTT assay) [2] | Activity (fungicidal/fungistatic) [3] | MIC-50 [3] [µg/mL] | Ratio MFC/MIC [3] | MFC [3] [µg/mL] | Activity (fungicidal/fungistatic) [4] | Ratio MFC/MIC [4] | MFC [4] [µg/mL] | MIC [4] [µg/mL] | Activity (fungicidal/fungistatic) [5] | MFC [5] [µg/mL] | Ratio MFC/MIC [5] | MIC [5] [µg/mL] | MFC [6] [µg/mL] | Activity (fungicidal/fungistatic) [6] | Ratio MFC/MIC [6] | also measured
O=c1c2ccccc2sn1Cc1nnc(Cc2ccccc2)o1 [Compound I-4] | >100 | >100 | >100 | 75 | minimally toxic | fungicidal (An MFC/MIC ratio of less than four indicates that the compound is fungicidal) | 12.5 | 1 | 12.5 | fungicidal (An MFC/MIC ratio of less than four indicates that the compound is fungicidal) | 1 | 12.5 | 12.5 | fungicidal (An MFC/MIC ratio of less than four indicates that the compound is fungicidal) | 6.4 | 1 | 6.4 | 12.5 | fungicidal (An MFC/MIC ratio of less than four indicates that the compound is fungicidal) | 1 | MIC [6]: 12.5 µg/mL; Activity (fungicidal/fungistatic) [7]: fungicidal (An MFC/MIC ratio of less than four indicates that the compound is fungicidal); Ratio MFC/MIC [7]: 1; MFC [7]: 12.5 µg/mL; MIC [7]: 12.5 µg/mL; Activity (fungicidal/fungistatic) [8]: fungicidal (An MFC/MIC ratio of less than four indicates that the compound is fungicidal); MFC [8]: 12.5 µg/mL; Ratio MFC/MIC [8]: 1; MIC [8]: 12.5 µg/mL; MFC [9]: 6 µg/mL (≈ 18.6 µM); Activity (fungicidal/fungistatic) [9]: fungicidal (An MFC/MIC ratio of less than four indicates that the compound is fungicidal); Ratio MFC/MIC [9]: 1; MIC [9]: 6 µg/mL (≈ 18.6 µM)
COc1ccc(CC(=O)NNC(=O)Cn2sc3ccccc3c2=O)cc1 [Compound I-6] | >100 | >100 | >100 | 67 | minimally toxic | fungicidal (An MFC/MIC ratio of less than four indicates that the compound is fungicidal) | 12.5 | 1 | 12.5 | fungicidal (An MFC/MIC ratio of less than four indicates that the compound is fungicidal) | 1 | 12.5 | 12.5 | fungicidal (An MFC/MIC ratio of less than four indicates that the compound is fungicidal) | 12.5 | 1 | 12.5 | 12.5 | fungicidal (An MFC/MIC ratio of less than four indicates that the compound is fungicidal) | 1 | MIC [6]: 12.5 µg/mL; Activity (fungicidal/fungistatic) [7]: fungicidal (An MFC/MIC ratio of less than four indicates that the compound is fungicidal); Ratio MFC/MIC [7]: 1; MFC [7]: 12.5 µg/mL; MIC [7]: 12.5 µg/mL; Activity (fungicidal/fungistatic) [8]: fungicidal (An MFC/MIC ratio of less than four indicates that the compound is fungicidal); MFC [8]: 12.5 µg/mL; Ratio MFC/MIC [8]: 1; MIC [8]: 12.5 µg/mL; MFC [9]: 12.5 µg/mL (≈ 33.7 µM); Activity (fungicidal/fungistatic) [9]: fungicidal (An MFC/MIC ratio of less than four indicates that the compound is fungicidal); Ratio MFC/MIC [9]: 1; MIC [9]: 12.5 µg/mL (≈ 33.7 µM)
CC(=O)NNC(=O)Cn1sc2ccccc2c1=O [Compound I-7] | >100 | >100 | >100 | >100 | minimally toxic | fungicidal (An MFC/MIC ratio of less than four indicates that the compound is fungicidal) | 12.5 | 1 | 12.5 | fungicidal (An MFC/MIC ratio of less than four indicates that the compound is fungicidal) | 2 | 50 | 25 | fungicidal (An MFC/MIC ratio of less than four indicates that the compound is fungicidal) | 6.4 | 1 | 6.4 | 12.5 | fungicidal (An MFC/MIC ratio of less than four indicates that the compound is fungicidal) | 1 | MIC [6]: 12.5 µg/mL; Activity (fungicidal/fungistatic) [7]: fungicidal (An MFC/MIC ratio of less than four indicates that the compound is fungicidal); Ratio MFC/MIC [7]: 1; MFC [7]: 12.5 µg/mL; MIC [7]: 12.5 µg/mL; Activity (fungicidal/fungistatic) [8]: fungicidal (An MFC/MIC ratio of less than four indicates that the compound is fungicidal); MFC [8]: 12.5 µg/mL; Ratio MFC/MIC [8]: 1; MIC [8]: 12.5 µg/mL; MFC [9]: 12.5 µg/mL (≈ 47.1 µM); Activity (fungicidal/fungistatic) [9]: fungicidal (An MFC/MIC ratio of less than four indicates that the compound is fungicidal); Ratio MFC/MIC [9]: 1; MIC [9]: 12.5 µg/mL (≈ 47.1 µM)

Source: patent US9040715B2 (priority 2008, dated 2015)
